The supplement of paper PMC10307832

What was measured:
Test in all cases: relative viability (nuclei count vs DMSO), 5 days (fraction); higher = more cells survive
[1] = system: NCI-H1975
Procedure, shortened: (§1)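 Values are medians from duplicate plates. Each reflects relative viability, defined as the nuclei count of treated wells over that of vehicle wells. Lung cancer cell lines in 1536-well plates were pin-tool dosed one day after seeding with one drug alone or with a fixed anchor-drug dose plus five library-drug doses (not always all listed) in √10 steps, then fixed, stained and imaged at 4× after 5 days.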

[2] = system: NCI-H322M
Procedure, shortened: as §1

[3] = system: RERF-LC-KJ
Procedure, shortened: as §1

[4] = system: PC-3 [JPC-3]
Procedure, shortened: as §1

[5] = system: NCI-H1355
Procedure, shortened: as §1

[6] = system: NCI-H1563
Procedure, shortened: as §1

[7] = system: EKVX
Procedure, shortened: as §1

[8] = system: LK-2
Procedure, shortened: as §1

[9] = system: CAL-12T
Procedure, shortened: as §1

[10] = system: H3255
Procedure, shortened: as §1

[11] = system: NCI-H1734
Procedure, shortened: as §1

Nc1ccn([C@@H]2O[C@H](CO)[C@@H](O)[C@@H]2O)c(=O)n1 [Cytarabine] + CS(=O)(=O)CCNCc1ccc(-c2ccc3ncnc(Nc4ccc(OCc5cccc(F)c5)c(Cl)c4)c3c2)o1 [Lapatinib] (partner 2 µM)
relative viability ([1]; first compound 0.005 µM): 0.644 | relative viability ([1]; first compound 0.01581 µM): 1.05 | relative viability ([1]; first compound 0.05 µM): 1.09 | relative viability ([1]; first compound 0.1581 µM): 0.456 | relative viability ([1]; first compound 0.5 µM): 0.372 | relative viability ([2]; first compound 0.005 µM): 0.585 | relative viability ([2]; first compound 0.01581 µM): 0.609 | relative viability ([2]; first compound 0.05 µM): 0.459 | relative viability ([2]; first compound 0.1581 µM): 0.354 | relative viability ([2]; first compound 0.5 µM): 0.348 | relative viability ([3]; first compound 0.005 µM): 0.885 | relative viability ([3]; first compound 0.01581 µM): 0.751 | relative viability ([3]; first compound 0.05 µM): 0.892 | relative viability ([3]; first compound 0.1581 µM): 0.569 | relative viability ([3]; first compound 0.5 µM): 0.47 | relative viability ([4]; first compound 0.005 µM): 0.435 | relative viability ([4]; first compound 0.01581 µM): 0.465 | relative viability ([4]; first compound 0.05 µM): 0.426 | relative viability ([4]; first compound 0.1581 µM): 0.396 | relative viability ([4]; first compound 0.5 µM): 0.389 | relative viability ([5]; first compound 0.005 µM): 0.884 | relative viability ([5]; first compound 0.01581 µM): 0.968 | relative viability ([5]; first compound 0.05 µM): 0.811 | relative viability ([5]; first compound 0.1581 µM): 0.66 | relative viability ([5]; first compound 0.5 µM): 0.322 | relative viability ([6]; first compound 0.005 µM): 0.935 | relative viability ([6]; first compound 0.01581 µM): 0.859 | relative viability ([6]; first compound 0.05 µM): 0.497 | relative viability ([6]; first compound 0.1581 µM): 0.926 | relative viability ([6]; first compound 0.5 µM): 0.708 | relative viability ([7]; first compound 0.005 µM): 0.225 | relative viability ([7]; first compound 0.01581 µM): 0.18 | relative viability ([7]; first compound 0.05 µM): 0.153 | relative viability ([7]; first compound 0.1581 µM): 0.138 | relative viability ([7]; first compound 0.5 µM): 0.112 | relative viability ([8]; first compound 0.005 µM): 0.627 | relative viability ([8]; first compound 0.01581 µM): 0.479 | relative viability ([8]; first compound 0.05 µM): 0.395 | relative viability ([8]; first compound 0.1581 µM): 0.248 | relative viability ([8]; first compound 0.5 µM): 0.283 | relative viability ([9]; first compound 0.005 µM): 0.848 | relative viability ([9]; first compound 0.01581 µM): 0.629 | relative viability ([9]; first compound 0.05 µM): 0.542 | relative viability ([9]; first compound 0.1581 µM): 0.388 | relative viability ([9]; first compound 0.5 µM): 0.269 | relative viability ([10]; first compound 0.005 µM): 0.268 | relative viability ([10]; first compound 0.01581 µM): 0.226 | relative viability ([10]; first compound 0.05 µM): 0.158 | relative viability ([10]; first compound 0.1581 µM): 0.197 | relative viability ([10]; first compound 0.5 µM): 0.188 | relative viability ([11]; first compound 0.005 µM): 0.628 | relative viability ([11]; first compound 0.01581 µM): 0.341
